Values joined by “and” are separate entries in the source; they are usually repeats but may differ in a detail not shown here. Identical values can stand only once.
How the values were obtained:
P2X7 receptor = test: Bead-standardized whole blood/PBMC monocyte P2X7 pore assay with PI exclusion of nonviable cells; type: cell-based, human; details: for BzATP Stimulated YO-PRO-1 measurement, Mean: viable monocytes
Protocol: PBMC Isolation. Six mLs of citrate-treated blood was underlayed with three mLs of Lymphoprep (Axis-Sheild, Oslo, Norway) and centrifuged at 800 g for 30 minutes at room temperature. The cellular interface was collected and washed twice with sterile phosphate-buffered saline (PBS). Cells were counted and assayed for pore activity as described below.
Sample Preparation. Although all leukocytes studied to date express P2X7, monocytes were selected as the cell population to screen because of the greater sensitivity of pore function noted between individuals participating in a small study with forty-five healthy subjects (5, 34). Staining procedures were as previously described (10, 14, 34). Briefly, aliquots of citrated whole blood ([…]) were washed twice in HEPES-buffered saline (HBS; 130 mM NaCl, 5 mM KCl, 20 mM HEPES pH 7.4, 0.1% bovine serum albumin, 10 mM glucose; components purchased at Sigma, St. Louis, Mo.) and resuspended in the original 500 L volume. A 10 μL aliquot of anti-human CD14 antibody conjugated to phycoerythrin (CD14-PE, 50 μg/mL; BD Biosciences, San Diego, Calif.) was added to each sample and incubated at room temperature for 20 min. The cells were washed twice in a potassium glutamate buffer (130 mM potassium glutamate, 5 mM KCl, 20 mM HEPES pH 7.4, 0.1% bovine serum albumin, 10 mM glucose; components from Sigma) to maximize the differences between high and low pore activities (17).
Samples were adjusted to 10 mM magnesium chloride, washed in HEPES-buffered saline and diluted to a volume of 2.5 mL in HBS. These latter steps have been previously shown to close the pore rapidly allowing for kinetic precision in a large clinical study (10, 34). For the methods described here, including all the samples from the MIA trial (Table 3), propidium iodide (PI; 5 μg/mL) was added to each sample and incubated for 15 min prior to sample acquisition using flow cytometry as described below.
Determination of Instrument Settings and Calculation of Spectral Overlap. All instruments in the facility are cleaned daily and assessed for laser alignment, photomultiplier tube (PMT) performance, linearity and noise. All fluorochromes were excited with a 488 nm laser and the following filter sets were used in all flow cytometers: a BP 530/30 for YO-PRO-1, a BP 585/42 for PE and a LP 670 for propidium iodide. Experiments were performed on FACScan, FACSCalibur, and LSR II flow cytometers (Becton Dickinson, San Jose, Calif.) in conjunction with the CellQuest, CellQuestPro, FACSDiva acquisition and analysis software programs (v. 3.3, v. 4.0, and v. 5.0.1, respectively; Becton Dickinson).
Previously, pore activity was measured on a FACScan flow cytometer (Becton Dickinson, San Jose, Calif.) using recalled instrument settings: YO-PRO-1 at 410 mV, PE at 412 mV, acquisition threshold for PE at 324 mV, and PE-32.6% YO-PRO-1 compensation (10). To facilitate comparisons across instrument platforms and among laboratories, we used these recalled settings as a template to adapt desired PMT voltages for SpheroTM Rainbow fluorescent particles (mid-range 3.0-3.4 μm; Sperotech, Lake Forest Ill.), corresponding data shown in FIG. 15. Rainbow particles have a very stable fluorescence and can be stored and used over a long period of time, allowing the intensities of these particles in each fluorescent detector to serve as target values for determining the voltages applied to each PMT for all of the cytometers used.
The same target values were used for the analog instruments, FACScan and FACSCalibur (BD Biosciences, San Jose, Calif.) because these instruments process fluorescence signals in the same way and the intensities determined were very close (data not shown). The LSR II (BD Biosciences, San Jose, Calif.) uses digital processing and fluorescence is collected and sampled differently so a second set of target values using these same samples was determined for each color detector on this cytometer. […]

P2X7 = molecular target: T1, P2X7 (Homo sapiens, UniProt Q99572); test: YO-PRO-1 plate assay of P2X7 agonists with astrocytoma cell line 1321N1; type: cell-based; details: for YO-PRO-1 fluorescence (485/20, 528/20), single well: 5 × 10^4 1321N1 cells; for YO-PRO-1 fluorescence, average of duplicate wells: 1321N1 cells, agent + YOPRO;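 on all read-outs here: dye uptake read after 20 min agonist exposure with YO-PRO-1 present, unbound dye removed by washing before reading in a fluorescence plate reader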
T1 construct: host or cells: astrocytoma cell line (the earlier reading names it 1321N1)
T1 sequence (Q99572 1-595): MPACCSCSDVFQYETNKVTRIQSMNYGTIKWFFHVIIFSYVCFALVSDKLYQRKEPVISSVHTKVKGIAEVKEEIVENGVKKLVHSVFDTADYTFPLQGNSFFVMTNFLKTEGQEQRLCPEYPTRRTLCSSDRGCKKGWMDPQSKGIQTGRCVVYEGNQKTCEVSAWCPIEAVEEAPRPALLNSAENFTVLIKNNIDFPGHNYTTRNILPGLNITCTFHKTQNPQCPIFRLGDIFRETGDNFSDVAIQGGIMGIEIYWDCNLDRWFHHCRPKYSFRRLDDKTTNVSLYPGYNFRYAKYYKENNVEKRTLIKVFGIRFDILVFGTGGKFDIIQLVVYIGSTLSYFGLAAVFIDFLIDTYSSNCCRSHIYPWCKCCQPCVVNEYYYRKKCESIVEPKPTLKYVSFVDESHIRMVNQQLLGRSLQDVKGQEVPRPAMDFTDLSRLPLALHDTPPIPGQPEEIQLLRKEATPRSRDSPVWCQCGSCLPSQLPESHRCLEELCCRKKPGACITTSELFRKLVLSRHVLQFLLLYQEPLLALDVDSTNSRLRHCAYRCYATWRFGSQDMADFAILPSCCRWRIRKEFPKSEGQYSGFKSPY

“2′-3′-O-(4-benzoylbenzoyl)-adenosine 5′-triphosphate [Bz-ATP]” was tested, and the “BzATP Stimulated median YO-PRO-1 fluorescence” value (P2X7 receptor; Ficoll prep PBMC, A, Bead-Adjusted compensation) was 292, the “BzATP Stimulated YO-PRO-1 measurement, Mean” value (P2X7 receptor; Low Responder donor, Bead Adjusted PMT method) was 30.1 and the “BzATP Stimulated YO-PRO-1 measurement, Mean” value (P2X7 receptor; Low Responder donor, Recalled PMT method) was 30.0. For the same substance, the “BzATP Stimulated YO-PRO-1 measurement, Mean” value (P2X7 receptor; Normal Responder donor, Bead Adjusted PMT method) was 1019.0, the “BzATP Stimulated YO-PRO-1 measurement, Mean” value (P2X7 receptor; Normal Responder donor, Recalled PMT method) was 983.0 and the “BzATP Stimulated median YO-PRO-1 fluorescence” value (P2X7 receptor; Whole blood, A, Bead-Adjusted compensation) was 276. The “BzATP Stimulated median YO-PRO-1 fluorescence” value (P2X7 receptor; Whole blood, B, Uncompensated) was 30.7, the “BzATP Stimulated median YO-PRO-1 fluorescence” value (P2X7 receptor; Whole blood, B, YO-PRO-PE Set at 2%) was 27.4 and the “BzATP Stimulated median YO-PRO-1 fluorescence” value (P2X7 receptor; Whole blood, C, Uncompensated) was 1071. The “BzATP Stimulated median YO-PRO-1 fluorescence” value (P2X7 receptor; Whole blood, C, YO-PRO-PE Set at 2%) was 1067, the “YO-PRO-1 fluorescence (485/20, 528/20), single well” value (“YO-PRO-1 fluorescence … single well” for short) (P2X7; agent 1 μM + YOPRO) was 98 and 89 and the “YO-PRO-1 fluorescence … single well” value (P2X7; agent 3 μM + YOPRO) was 188. The “YO-PRO-1 fluorescence … single well” value (P2X7; agent 10 μM + YOPRO) was 213, the “YO-PRO-1 fluorescence … single well” value (P2X7; agent 30 μM + YOPRO) was 217 and the “YO-PRO-1 fluorescence … single well” value (P2X7; agent 100 μM + YOPRO) was 223 and 214. The “YO-PRO-1 fluorescence … single well” value (P2X7; agent 300 μM + YOPRO) was 220 and 232, the “YO-PRO-1 fluorescence, average of duplicate wells” value (P2X7; 1 uM) was 93.5 and the “YO-PRO-1 fluorescence, average of duplicate wells” value (P2X7; 3 uM) was 188.

Reference: patent US7960131B2, “Functional genomic pore assay for mixed cell populations” (Wisconsin Alumni Research Foundation, priority 2003, dated 2011)
